Measurements as given in US6710074B2, “Compound having antimalarial activity” (Japan Science and Technology Corporation, priority 2000, dated 2004).
Read-outs that look alike come from different tables or passages of the source.

What was measured:
[1] = test system: P. falciparum; test: Growth inhibition test of P. falciparum; assay type: cell-based, Plasmodium falciparum; details: for Chemotherapeutic coefficient IC50/EC50: IC50 of mouse FM3A cells / EC50 of P. falciparum, index of selective toxicity; for EC50: Plasmodium falciparum
Experimental: P. Falciparum FCR-3 strain (ATCC30932) and P. Falciparum Honduras-i strain (ATCC30935), both of which are Plasmodium falciparum, were used as test malaria parasites for measuring antimalarial activity. A filter-sterilized RPMI1640 medium was adjusted to be pH 7.4 and added with human serum such that the serum made up 10% of the medium, and used as a test medium. The above-mentioned P. falciparum were cultured in O2at a concentration of 5%, CO2 at a concentration of 5% and N2 at a concentration of 90%, at a temperature of 36.5° C. Hematocrit value (ratio of volume of erythrocytes in erythrocyte suspension) used was adjusted to be 5%. Initial infection rate of P. falciparum at the beginning of culture was adjusted to be 0.1%. A 24-well plate was used for culture and a medium was replaced everyday, and cultures were transferred at infection rate of 4%. A thin-layer smear was constructed and subjected to Giemsa staining which had been originally developed for malarial test, or Diff-Qick staining, and followed by measurement under a microscope (oil immersion, 1000×), and then infection rate of P. falciparum was calculated according to a formula mentioned below. [formula]
Cultured erythrocytes infected with P. falciparum were gathered by centrifugation and washed with a medium containing serum, then noninfected erythrocytes were added, and a culture liquid for P. falciparum at initial infection rate of 0.3% was prepared. Hematocrit value in this case was adjusted to be 3%. The compound according to the present invention used for a test and represented by the formula (II) and […] of positive control drug (quinine, artemisinin, artesunate, mefloquine) were dissolved into sterilized water, N,N-dimethylformamide (DMF) or dimethylsulfoxide (DMSO), and a sample solution at prescribed concentration was prepared. 5 to 10 μl of the sample solution was added to each well of a 24-well plate. The sample solution was duplicated or triplicated. For control, sterilized water, DMF or DMSO was added by 10 μl per well. Next, the above-mentioned culture liquid for P. falciparum prepared to be at initial infection rate of 0.3% was added by 990 to 995 μl each, and uniformly suspended in media by pipetting gently. After cultured for 72 hours in a CO2—O2—N2 (5%, 5%, 90%) incubator, a thin-layer smear was constructed for each well of the culture plate, Giemsa staining or Diff-Qick staining was conducted, followed by measurement under a microscope (oil immersion, 1000×), and then infection rates of P. falciparum in a group supplemented with a test liquid and in controls were calculated. The growth inhibition rate was calculated according to a formula mentioned below based on the infection rate of P. falciparum as calculated above, and 50% growth inhibitory concentration (EC50) was calculated. [formula] […]
a: initial infection rate b: infection rate of a sample solution after 72 hours c: infection rate of a control after 72 hours
Antimalarial activity of a sample was evaluated based on EC50 and IC50 values of the sample of P. falciparum and mouse FM3A cells. Chemotherapeutic coefficient used as an index of selective toxicity against P falciparum was calculated by a formula mentioned below and drug efficacy was assessed. [formula]

[2] = test system: mouse FM3A cells; test: Growth inhibition test of mouse FM3A cells; assay type: cell-based; details: for IC50: read-out: 50% growth inhibitory concentration IC50
Experimental: An F28-7 strain, a wild-type strain of mouse breast cancer-derived FM3A cells was used. Immobilized fetal bovine serum was added to an ES medium such that the serum made up 2% of the medium, and culture was conducted in CO2 at a concentration of 5%, and at 37° C. Doubling time of the F28-7 strain of FM3A cells under this condition was about 12 hours. Cells which had been precultured and entered to logarithmic growth phase were diluted to be 5×10^4 cells/ml in the medium. The same sample solution as in the above-mentioned Example 2-2 was used. 5 to 10 μl of the sample solution was added to each well of a 24-well plate (when medium and the like were added, the final concentration became 1×10^−4˜1×10^−5 M). The sample solution was duplicated or triplicated, and wells added with 10 μl of sterilized water, DMF or DMSO were prepared at the same time as controls. Next, a prepared suspension of cultured cells was added by 990 to 995 μl each, and uniformly suspended in media by pipetting gently. After cultured for 48 hours, the number of cells in each well was counted by a cell counter (CC-108; Toa. Medical Electrics), and growth rate was calculated by a formula mentioned below and 50% growth inhibitory rate (IC50) was calculated. The cell proliferation inhibiting activity was calculated according to the number of cells in wells supplemented with the sample solution and in controls. […] on this, cell toxicity of the sample was evaluated. [formula]
A: the number of cells at the beginning
B: the number of cells in a control after 2 days
C: the number of cells 2 days after supplementation of a sample

[3] = Erythrocyte, P. falciparum in human erythrocytes, cultured for 72 hours, infection rate by smear staining, read-out: 50% growth inhibitory concentration EC50
[4] = F28-7 strain of mouse breast cancer-derived FM3A cells, cultured for 48 hours, cell count

Row | SMILES | EC50 [1, 3] | EC50 ([1]; read-out: inhibits the growth of drug-resistant P. falciparum at a mol concentration of) | Chemotherapeutic coefficient IC50/EC50 [1] | IC50 [2, 4] | EC50 ([1]; Erythrocyte, 72 h, read-out: 50% growth inhibitory concentration EC50) | IC50 ([2]; Mus musculus, FM3A, 48 h) | selective toxicity against P. falciparum compared with that against mouse FA3A cells ([1]; P. falciparum versus mouse FA3A cells) | growth ([2]; mouse FM3A cells, printed below the IC50 cell 2.4 × 10^−5 M)
1 | C=C[C@H]1C[N@@]2CC[C@H]1C[C@H]2[C@H](O)c1ccnc2ccc(OC)cc12 [Quinine, quinine] | 110 nM | – | 910 | 100000 nM | – | – | – | –
2 | C[C@H]1[C@H](OC(=O)CCC(=O)O)O[C@@H]2O[C@@]3(C)CC[C@H]4[C@H](C)CC[C@@H]1[C@@]24OO3 [Artesunate, artesunate] | – | – | 180 | – | 17 nM | 3000 nM | – | –

Continued, in another order:

Row | EC50 [1, 3] | EC50 ([1]; read-out: inhibits the growth of drug-resistant P. falciparum at a mol concentration of) | SMILES | Chemotherapeutic coefficient IC50/EC50 [1] | IC50 [2, 4] | EC50 ([1]; Erythrocyte, 72 h, read-out: 50% growth inhibitory concentration EC50) | IC50 ([2]; Mus musculus, FM3A, 48 h) | selective toxicity against P. falciparum compared with that against mouse FA3A cells ([1]; P. falciparum versus mouse FA3A cells) | growth ([2]; mouse FM3A cells, printed below the IC50 cell 2.4 × 10^−5 M)
3 | 7.9 nM | – | C[C@@H]1CC[C@H]2[C@@H](C)C(=O)O[C@@H]3O[C@@]4(C)CC[C@@H]1[C@]32OO4 [Artemisinin, artemisinin] | 1,300 | 10000 nM | – | – | – | –
4 | 39 nM | 39 nM | COC(=O)C(C)C1CCC(=O)C2CCC3(C)OOC21C(O)O3 (stereo not drawn) [Compound of the present invention, 12-hidroxy-2-(1-methoxycarbonylethyl)-5-oxo-10,11,13-trioxatricyclo[7.2.0.0^1,6]tridecane] | >1,000 | ≥ 24000 nM | – | – | more than 1,000 times | (78% growth)
5 | 32 nM | – | OC(c1cc(C(F)(F)F)nc2c(C(F)(F)F)cccc12)C1CCCCN1 (stereo not drawn) [Mefloquine, mefloquine] | 90 | 2900 nM | – | – | – | –
